Results on 16 compounds are retold here after ChEMBL document CHEMBL1201862, “PubChem BioAssay data set” (2004).

For data set [1], the target named is Steroidogenic factor 1 (Homo sapiens, UniProt Q13285). Briefly: Counterscreen for inverse agonists of the liver receptor homolog-1 (LRH-1; NR5A2): Luminescence-based cell-based high throughput dose response assay to identify inverse agonists of the Steroidogenic Factor 1 Nuclear Receptor (SF1; NR5A1). It is filed as functional. A general note: The purpose of a counterscreen is to sort out artefacts and off-target activity.

Data set [2] can be described thus: nonselective StAR promoter luciferase inhibitors – cell-based, luminescence, luciferase reporter, counter-screen for LRH-1 inverse agonist project, dose response (AID 651969). It is filed as functional. For orientation: A reporter such as luciferase makes a cellular process visible.
In data set [3] the target is Cytochrome P450 3A4 (Homo sapiens, UniProt P08684).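 Further: CYP3A4 tested as one member of a cytochrome P450 panel screen.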
Data set [4] concerns the target Nuclear receptor subfamily 5 group A member 2 (Homo sapiens, UniProt O00482). Type of data set: functional, cell-based.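 Further: HEK293T cells transfected with LRH-1 and a StAR promoter luciferase reporter; potency for inhibitors that lower LRH-1 driven reporter light.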
Data set [5] in a line: A Cell Based Secondary Assay to Explore Cytotoxicity in THP-1 Cells of Compounds that Modulate Mycobacterium tuberculosis in Media Containing Glycerol versus Media without Glycerol (2). It is filed as functional.
A short description of data set [6]: Vero cell cytotoxicity, cytotoxicity control for M. tuberculosis inhibitor project, purified and synthesized samples, set 3 (AID 504684). Type of data set: functional. The note with it: […].
Data set [7] concerns the target T1, Coagulation factor XII (Homo sapiens, UniProt P00748).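 Further: activated factor XIIa alpha cleaving a fluorogenic AMC peptide substrate; inhibitor potency from loss of enzyme activity.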
T1 sequence (P00748 whole entry): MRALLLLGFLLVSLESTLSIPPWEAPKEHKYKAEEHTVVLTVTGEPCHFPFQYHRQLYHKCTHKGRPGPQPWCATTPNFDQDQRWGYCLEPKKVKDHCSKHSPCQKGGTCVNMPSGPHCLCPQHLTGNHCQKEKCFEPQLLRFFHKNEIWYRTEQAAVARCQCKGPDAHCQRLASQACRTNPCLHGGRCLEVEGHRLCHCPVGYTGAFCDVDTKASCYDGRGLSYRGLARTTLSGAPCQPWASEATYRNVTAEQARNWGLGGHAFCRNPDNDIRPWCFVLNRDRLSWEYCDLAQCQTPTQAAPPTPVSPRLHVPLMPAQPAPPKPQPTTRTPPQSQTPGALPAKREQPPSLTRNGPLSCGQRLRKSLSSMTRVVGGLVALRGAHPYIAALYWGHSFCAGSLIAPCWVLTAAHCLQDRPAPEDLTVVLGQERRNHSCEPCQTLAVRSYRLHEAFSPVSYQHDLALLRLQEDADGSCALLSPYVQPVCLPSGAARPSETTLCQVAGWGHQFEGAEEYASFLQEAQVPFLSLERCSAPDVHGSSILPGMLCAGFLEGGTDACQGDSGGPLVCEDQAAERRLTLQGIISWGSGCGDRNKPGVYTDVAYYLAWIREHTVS
Type of data set: functional.

A short description of data set [8]: blockers of CRF-binding protein–CRF-R2 complex – cell-based, uHTS hits, 384-well, dose response (AID 651639). Type of data set: functional, Homo sapiens. The note with it: read-out: IC50_Mean.
Data set [9] deals with T2, Corticotropin-releasing factor receptor 2/Corticotropin-releasing factor-binding protein (Homo sapiens, UniProt P24387+Q13324).
T2 sequence (Q13324 whole entry): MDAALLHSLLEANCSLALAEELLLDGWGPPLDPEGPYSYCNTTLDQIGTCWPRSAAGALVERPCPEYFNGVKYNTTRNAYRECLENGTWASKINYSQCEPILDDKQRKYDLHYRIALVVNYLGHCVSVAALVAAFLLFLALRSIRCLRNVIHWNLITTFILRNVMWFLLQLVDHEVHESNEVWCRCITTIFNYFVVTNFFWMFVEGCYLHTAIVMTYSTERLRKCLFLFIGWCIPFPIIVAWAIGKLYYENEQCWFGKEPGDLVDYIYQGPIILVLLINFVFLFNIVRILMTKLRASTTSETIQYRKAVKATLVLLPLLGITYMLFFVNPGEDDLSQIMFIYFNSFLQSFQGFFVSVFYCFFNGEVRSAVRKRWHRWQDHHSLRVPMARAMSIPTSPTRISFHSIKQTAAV
T2 sequence (P24387 whole entry): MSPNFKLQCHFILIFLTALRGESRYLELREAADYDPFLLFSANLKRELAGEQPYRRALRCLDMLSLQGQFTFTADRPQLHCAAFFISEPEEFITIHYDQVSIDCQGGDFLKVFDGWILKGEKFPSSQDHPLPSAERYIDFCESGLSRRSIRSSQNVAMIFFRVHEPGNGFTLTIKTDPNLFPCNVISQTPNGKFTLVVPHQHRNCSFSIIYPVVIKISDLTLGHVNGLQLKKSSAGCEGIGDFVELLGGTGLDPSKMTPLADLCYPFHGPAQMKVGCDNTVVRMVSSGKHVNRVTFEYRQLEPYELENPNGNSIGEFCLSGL
Briefly: Dose Response confirmation of uHTS hits for small molecule antagonists of the CRF-binding protein and CRF-R2 receptor complex. The note with it: read-out: IC50_Mean. It is filed as functional.

Data set [10] addresses T2, Corticotropin-releasing factor receptor 2/Corticotropin-releasing factor-binding protein. Kind of data set: activators of CRF receptor 2 with binding protein – uHTS hits, confirmation (AID 602473). It is filed as functional. The settings on record: read-out: EC50_Mean.
The nature of data set [11]: cAMP pathway inhibition in counterscreen cell line – TR-FRET cAMP detection, counter-screen for MC4R biased antagonist project, dose response (AID 602305).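 Further: U2OS cells stimulated with forskolin near its EC80 as the cAMP inducer; potency is for inhibition of forskolin-stimulated cAMP signaling.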 It is filed as functional, cell-based.
Data set [12] addresses Melanocortin receptor 4 (Homo sapiens, UniProt P32245). Kind of data set: inhibitors of MC4R cAMP signaling – cell-based, TR-FRET, biased antagonists, dose response (AID 602298).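 Further: antagonist potency against agonist-stimulated cAMP production.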 It is filed as functional. Background: TR-FRET usually uses a lanthanide donor and a delayed reading to cut background.
The target in data set [13] is Glyceraldehyde-3-phosphate dehydrogenase (Homo sapiens, UniProt P04406).
The target of data set [14] is T3, Alkaline phosphatase, tissue-nonspecific isozyme (Homo sapiens, UniProt P05186).
T3 sequence (P05186 whole entry): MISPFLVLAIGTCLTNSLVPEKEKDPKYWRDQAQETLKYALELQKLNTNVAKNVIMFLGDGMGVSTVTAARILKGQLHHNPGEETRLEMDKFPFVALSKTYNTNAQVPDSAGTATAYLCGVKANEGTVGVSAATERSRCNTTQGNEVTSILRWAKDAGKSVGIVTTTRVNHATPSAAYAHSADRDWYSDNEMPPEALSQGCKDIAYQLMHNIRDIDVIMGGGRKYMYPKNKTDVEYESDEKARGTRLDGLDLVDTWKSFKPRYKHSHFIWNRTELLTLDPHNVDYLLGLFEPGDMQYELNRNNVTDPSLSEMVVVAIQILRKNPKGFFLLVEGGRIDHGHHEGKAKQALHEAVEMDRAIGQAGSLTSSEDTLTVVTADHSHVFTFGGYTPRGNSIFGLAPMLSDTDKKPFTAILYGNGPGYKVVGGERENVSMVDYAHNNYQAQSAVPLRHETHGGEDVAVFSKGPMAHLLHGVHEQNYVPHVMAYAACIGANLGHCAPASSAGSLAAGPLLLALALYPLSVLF
Briefly: potency against alkaline phosphatase TNAP – biochemical, luminescent, dose response, SAR follow-up (AID 1056).

In data set [15] the target is T4, RNA-binding protein pos-1 (Caenorhabditis elegans, UniProt G5EF15).
T4 sequence (G5EF15 whole entry): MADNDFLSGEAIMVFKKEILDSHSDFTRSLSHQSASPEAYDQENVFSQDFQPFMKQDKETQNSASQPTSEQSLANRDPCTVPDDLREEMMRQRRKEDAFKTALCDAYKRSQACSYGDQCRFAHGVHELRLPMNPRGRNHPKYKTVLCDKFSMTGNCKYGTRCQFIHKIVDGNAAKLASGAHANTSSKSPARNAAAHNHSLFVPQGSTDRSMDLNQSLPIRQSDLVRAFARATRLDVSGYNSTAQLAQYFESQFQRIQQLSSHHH
Briefly: disruptors of C. elegans POS-1 RNA interaction – biochemical, fluorescence polarization, dose response (AID 1964).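 Further: purified POS-1 fused to maltose binding protein made in E. coli; potency of compounds blocking POS-1 binding to fluorescent RNA.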

For data set [16], the target named is T5, Zinc finger protein mex-5 (Caenorhabditis elegans, UniProt Q9XUB2).
T5 sequence (Q9XUB2 whole entry): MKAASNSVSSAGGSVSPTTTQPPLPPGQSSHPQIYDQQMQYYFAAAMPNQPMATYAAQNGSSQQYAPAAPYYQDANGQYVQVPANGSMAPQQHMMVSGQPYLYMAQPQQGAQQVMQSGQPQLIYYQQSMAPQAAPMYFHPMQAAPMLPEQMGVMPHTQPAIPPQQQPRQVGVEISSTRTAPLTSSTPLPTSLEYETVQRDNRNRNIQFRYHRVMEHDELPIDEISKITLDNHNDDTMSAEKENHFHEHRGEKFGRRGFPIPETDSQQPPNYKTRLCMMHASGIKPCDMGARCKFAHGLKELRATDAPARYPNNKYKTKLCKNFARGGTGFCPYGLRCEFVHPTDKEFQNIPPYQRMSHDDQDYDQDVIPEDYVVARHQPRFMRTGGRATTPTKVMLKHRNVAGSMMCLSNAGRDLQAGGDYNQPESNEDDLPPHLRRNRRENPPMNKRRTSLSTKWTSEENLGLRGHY
Briefly: potency of MEX-5 RNA-binding blockers – biochemical, C. elegans, fluorescence polarization, dose response (AID 1960).

In data set [17] the target is Heat shock protein HSP 90-alpha (Homo sapiens, UniProt P07900). Type of data set: functional, organism-based.
The nature of data set [18]: reduction of Shn3 3'UTR-driven luciferase in osteoblasts – cell-based, Clone20 osteoblasts, firefly luciferase, cherry-picked, dose response (AID 624132).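 Further: firefly luciferase luminescence from reporter carrying the Shn3 3'UTR in osteoblasts.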 Type of data set: functional.
A short description of data set [19]: non-specific 3'UTR reporter inhibition in Clone20-Shn3RL – cell-based, Renilla luciferase, cherry-picked, counter-screen for Shn3 inhibitor project, dose response (AID 624133). Type of data set: functional.
Data set [20] can be described thus: loss of viability in HepG2 cells – cell-based, CellTiter-Glo, cherry-picked, cytotoxicity control for Shn3 inhibitor project, dose response (AID 624134). It is filed as functional.
For data set [21], the target named is Photoreceptor-specific nuclear receptor (Homo sapiens, UniProt Q9Y5X4). It is filed as functional, cell-based.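 Further: CHO-S cells with Gal4-NCOR and VP16-NR2E3 two-hybrid luciferase reporter.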
In data set [22] the target is Eukaryotic translation initiation factor 4E (Mus musculus, UniProt P63073). Kind of data set: blockers of eIF4G binding by eIF4E – biochemical, TR-FRET, dose response (AID 855).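 Further: potency for disrupting eIF4E binding to eIF4GI seen as loss of FRET.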 Type of data set: functional.

Molecules are shown by their SMILES. Activity calls are given as the source filed them.

Usually AC50 stands for the concentration at which the activity in the assay is half-maximal. A word on the CC50: it is the concentration at which the toxic effect on the cells reaches its halfway point.

Chain of Nuclear receptor subfamily 5 group A member 2 (O00482 whole entry): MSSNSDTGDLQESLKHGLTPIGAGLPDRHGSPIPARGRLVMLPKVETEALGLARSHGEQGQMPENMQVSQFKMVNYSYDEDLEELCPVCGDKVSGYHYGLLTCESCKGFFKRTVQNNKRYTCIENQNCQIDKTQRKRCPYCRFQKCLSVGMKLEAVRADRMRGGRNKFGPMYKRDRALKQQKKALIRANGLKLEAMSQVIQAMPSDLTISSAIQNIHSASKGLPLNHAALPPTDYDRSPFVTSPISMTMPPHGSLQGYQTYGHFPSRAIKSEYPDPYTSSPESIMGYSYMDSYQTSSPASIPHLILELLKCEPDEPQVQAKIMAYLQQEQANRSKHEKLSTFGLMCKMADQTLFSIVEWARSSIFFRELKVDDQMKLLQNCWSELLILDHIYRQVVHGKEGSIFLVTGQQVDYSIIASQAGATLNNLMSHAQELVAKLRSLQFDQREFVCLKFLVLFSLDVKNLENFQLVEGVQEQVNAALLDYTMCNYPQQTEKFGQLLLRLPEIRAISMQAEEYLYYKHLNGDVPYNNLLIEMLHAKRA
Chain of Steroidogenic factor 1 (Q13285 whole entry): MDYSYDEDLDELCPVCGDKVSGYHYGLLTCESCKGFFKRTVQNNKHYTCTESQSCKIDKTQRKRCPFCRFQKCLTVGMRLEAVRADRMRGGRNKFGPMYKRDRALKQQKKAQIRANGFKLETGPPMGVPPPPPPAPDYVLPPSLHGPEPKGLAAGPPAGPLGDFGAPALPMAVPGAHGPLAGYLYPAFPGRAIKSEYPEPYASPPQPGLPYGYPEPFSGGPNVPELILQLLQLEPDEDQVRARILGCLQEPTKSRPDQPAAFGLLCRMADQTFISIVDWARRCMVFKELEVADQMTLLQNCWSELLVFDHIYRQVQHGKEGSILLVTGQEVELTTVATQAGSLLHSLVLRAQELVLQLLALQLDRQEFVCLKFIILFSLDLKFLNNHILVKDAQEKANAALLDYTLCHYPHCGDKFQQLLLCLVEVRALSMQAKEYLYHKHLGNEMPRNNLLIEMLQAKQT
Chain of Glyceraldehyde-3-phosphate dehydrogenase (P04406 whole entry): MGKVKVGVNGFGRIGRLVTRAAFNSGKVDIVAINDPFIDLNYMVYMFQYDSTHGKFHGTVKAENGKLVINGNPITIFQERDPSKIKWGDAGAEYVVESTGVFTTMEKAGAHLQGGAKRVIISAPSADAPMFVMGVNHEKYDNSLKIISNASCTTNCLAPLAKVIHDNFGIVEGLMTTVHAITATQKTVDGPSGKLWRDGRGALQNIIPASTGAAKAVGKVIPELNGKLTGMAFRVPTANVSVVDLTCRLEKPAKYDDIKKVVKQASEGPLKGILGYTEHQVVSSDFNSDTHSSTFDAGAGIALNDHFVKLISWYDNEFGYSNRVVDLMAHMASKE
Chain of Melanocortin receptor 4 (P32245 whole entry): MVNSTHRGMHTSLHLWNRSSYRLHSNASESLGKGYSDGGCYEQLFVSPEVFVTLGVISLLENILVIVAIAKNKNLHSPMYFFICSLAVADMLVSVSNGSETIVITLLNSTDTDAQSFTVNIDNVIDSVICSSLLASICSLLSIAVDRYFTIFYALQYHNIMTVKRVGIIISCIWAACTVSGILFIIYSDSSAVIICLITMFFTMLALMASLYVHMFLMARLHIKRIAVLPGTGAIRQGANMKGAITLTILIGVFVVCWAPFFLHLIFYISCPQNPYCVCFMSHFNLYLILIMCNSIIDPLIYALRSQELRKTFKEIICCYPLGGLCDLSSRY
Chain of Cytochrome P450 3A4 (P08684 whole entry): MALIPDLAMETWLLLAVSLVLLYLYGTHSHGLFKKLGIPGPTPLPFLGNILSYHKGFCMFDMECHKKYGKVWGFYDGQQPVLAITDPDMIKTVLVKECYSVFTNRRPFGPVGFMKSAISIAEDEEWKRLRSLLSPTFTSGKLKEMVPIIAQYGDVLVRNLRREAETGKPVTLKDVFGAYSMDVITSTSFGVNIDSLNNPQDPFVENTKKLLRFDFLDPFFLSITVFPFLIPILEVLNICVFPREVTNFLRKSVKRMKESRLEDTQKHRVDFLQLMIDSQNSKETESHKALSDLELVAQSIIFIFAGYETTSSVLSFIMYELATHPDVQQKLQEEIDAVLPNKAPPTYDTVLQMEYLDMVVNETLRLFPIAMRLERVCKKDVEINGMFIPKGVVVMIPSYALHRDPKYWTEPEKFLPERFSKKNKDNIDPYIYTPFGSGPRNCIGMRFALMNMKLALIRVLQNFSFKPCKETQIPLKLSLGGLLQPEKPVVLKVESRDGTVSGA
Chain of Eukaryotic translation initiation factor 4E (P63073 whole entry): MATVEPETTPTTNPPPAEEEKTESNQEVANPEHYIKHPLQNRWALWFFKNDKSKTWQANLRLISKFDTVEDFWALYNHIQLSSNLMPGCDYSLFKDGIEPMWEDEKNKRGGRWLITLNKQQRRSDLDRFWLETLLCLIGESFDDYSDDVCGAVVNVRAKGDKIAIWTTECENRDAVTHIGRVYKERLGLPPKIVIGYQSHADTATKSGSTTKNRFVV
Chain of Photoreceptor-specific nuclear receptor (Q9Y5X4 whole entry, the tested form may be a part): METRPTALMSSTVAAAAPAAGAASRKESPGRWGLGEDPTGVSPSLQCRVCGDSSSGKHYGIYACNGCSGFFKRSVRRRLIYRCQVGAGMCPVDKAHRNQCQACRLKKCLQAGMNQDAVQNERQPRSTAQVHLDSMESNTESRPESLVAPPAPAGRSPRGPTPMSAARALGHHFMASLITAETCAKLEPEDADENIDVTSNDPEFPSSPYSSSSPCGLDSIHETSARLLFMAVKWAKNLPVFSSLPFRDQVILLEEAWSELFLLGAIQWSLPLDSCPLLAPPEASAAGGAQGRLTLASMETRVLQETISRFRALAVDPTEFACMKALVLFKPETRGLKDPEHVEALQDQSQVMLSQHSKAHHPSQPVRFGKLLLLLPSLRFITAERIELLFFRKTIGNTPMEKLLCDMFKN

Consider `Cc1sc(NC(=O)C(C)C)c(C(=O)Nc2ccccc2)c1C`, for which the IC50 is 3.85 µM (active) in data set [1], 35.9 µM (inactive) in data set [2] and 11.6 µM (inactive) in data set [4]. In addition, the AC50 result in data set [3] is reported as “inconclusive”.

On to `Cc1ccn2c(=O)nc(SCC(=O)Nc3ccc4c(c3)OCCO4)nc2c1`, for which the IC50 is 3.98 µM (active) in data set [1], 35.9 µM (inactive) in [2] and 35.9 µM (inactive) in data set [4].

For the compound `CCn1c2ccccc2c2cc(NC(=O)CSc3nc(C)cc(=O)[nH]3)ccc21`, the half-maximal cytotoxic concentration (CC50) is 41.1 µM (active) in data set [5] and 56 µM (active) in [6].

Consider `CCCOc1ccc(C(=O)NC(C)C(=O)O)cc1` (stereo not given), for which the IC50 in [7] was > 50 µM (inactive).

As to `CCOC(=O)/C(C#N)=C\c1ccc2c(c1)OCO2`, the results for the IC50 in [8] and in [9] were > 20 µM (inactive) and 2.02 µM (active), respectively. Further, the EC50 in [10] was > 53 µM (inactive).

As for `CCC(C)NC(=O)C1CN(S(=O)(=O)c2ccccc2)CCN1S(=O)(=O)c1ccccc1` (stereo not given), the IC50 in [7] was > 50 µM (inactive).

With `NS(=O)(=O)c1ccc(NC(=O)COC(=O)c2ncc(Cl)c(Cl)c2Cl)cc1`, the IC50 in [11] and in data set [12] was > 64.6 µM (inactive) in each case.

For `COc1ccc(S(=O)(=O)Nc2ccncc2)cc1OC`, the values for the IC50 in [13] and in data set [14] were > 100 µM (not active) and > 100 µM (inactive), respectively.

For the compound `Cc1ccc(S(=O)(=O)Nc2nc3ccccc3nc2Cl)cc1`, the IC50 in data set [13] is > 100 µM (not active); in data set [14], > 100 µM (inactive).

For the compound `O=C1c2c(Cl)c(Cl)c(Cl)c(Cl)c2C(=O)N1c1nnc(CCc2ccccc2)[nH]1`, the values for the IC50 in [13] and in data set [14] were > 100 µM (not active) and > 100 µM (inactive), respectively.

Turning to `COc1ccccc1Nc1nc(N)nc(CSC(=S)N2CC(C)CC(C)C2)n1` (stereo not given), the IC50 in data set [8] is > 20 µM (inactive); in data set [9], 32 µM (active). Also, in data set [10], the EC50 was > 53 µM (inactive).

For `CN(Cc1ccccc1)c1nc2c(c(=O)[nH]c(=O)n2C)n1CCCSc1ncccn1`, in data set [7], the IC50 was > 50 µM (inactive).

As for `CCOC(=O)CSc1nc2ccc(Nc3nc(N4CCOCC4)nc(N4CCOCC4)n3)cc2s1`, the EC50 in [15] and in data set [16] was > 300 µM (not active) throughout. Moreover, the IC50 in data set [11] and in data set [12] was > 64.6 µM (inactive) throughout.

In the case of `Cc1cc(Br)ccc1NC(=O)CSc1nnc(CN2CCOCC2)n1C`, the results for the IC50 in data set [1], in data set [2] and in data set [4] were 24.7 µM (inactive), 35.9 µM (inactive) and 40.2 µM (inactive), respectively.

As for `O=C(OC12CC3CC(CC(C3)C1)C2)c1ccc(NCc2cc(O)ccc2O)cc1`, the AC50 in data set [17] is 5.15 µM (active); in data set [18], 2.33 µM (active); in data set [19], 3.99 µM (active); in data set [20] it was 53 µM (active). Also, the IC50 in data set [21] is 4.09 µM (active).

As to `COc1ccc(C2=CSC3=NCCN23)cc1F`, the IC50 in data set [7] is > 50 µM (inactive); in [22], > 64 µM (inactive).
